Patent publication US20240116928A1 (Gilead Sciences, Inc., priority 2022, published 2024)

Experiments:
CD73 [1] = molecular target: T1, CD73 (Homo sapiens, UniProt P21589); test: CD73 Biochemical IC50 Assay; settings: CD73 enzyme (R&D system) final 0.3 nM, final AMP 15 uM, 60 mins incubation, Rapid fire
T1 sequence (P21589 27-549): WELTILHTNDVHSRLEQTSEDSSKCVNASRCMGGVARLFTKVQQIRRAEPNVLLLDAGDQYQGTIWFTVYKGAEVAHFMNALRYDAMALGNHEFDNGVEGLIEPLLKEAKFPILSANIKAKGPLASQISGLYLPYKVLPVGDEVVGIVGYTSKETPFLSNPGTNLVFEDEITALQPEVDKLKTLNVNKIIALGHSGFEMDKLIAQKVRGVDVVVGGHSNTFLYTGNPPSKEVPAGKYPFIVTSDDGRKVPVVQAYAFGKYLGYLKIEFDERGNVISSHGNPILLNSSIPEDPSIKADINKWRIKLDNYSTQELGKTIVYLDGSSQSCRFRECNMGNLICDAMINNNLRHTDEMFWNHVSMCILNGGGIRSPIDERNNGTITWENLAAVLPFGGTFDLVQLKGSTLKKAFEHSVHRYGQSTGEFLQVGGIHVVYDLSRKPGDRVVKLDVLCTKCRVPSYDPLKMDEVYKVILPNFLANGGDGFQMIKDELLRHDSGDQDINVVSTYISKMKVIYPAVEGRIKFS
Description: CD73 Biochemical IC50 Assay
Compound serial dilutions were pre-spotted into Thermo Nunc assay plate. 50 μL CD73 enzyme buffer (CD73 purchased from R&D system=0.6 nM, 25 mM Tris, pH 7.4, 5 mM MgCl2, 1 mM NaH2PO4) was added into the assay plate and incubated for 15 mins. […] After incubation for 60 mins, the supernatant 20 uL was transferred into 384-well NUNC plate pre-filled with 60 ul Quench buffer (80% organic and 20% water+0.1% FA) with internal standard. The plate was spun down at 4500 rpm for 20 mins, then 20 μl of supernatant was transferred to another Nunc plate prefilled with 80 μl of water. The samples were run using Rapid fire.

CD73 [2] = molecular target: T1, CD73; test: MDA-MB-231 Cell Based CD73 Activity Assay (DMEM); design: endogenous in cells; host or cells: MDA-MB-231-GFP; settings: MDA-MB-231-GFP cells, DMEM with 10% human plasma, overnight compound treatment, 200 uM AMP, 100 mins
Description: Cells were plated into assay plate with compounds pre-spotted, for an overnight compound treatment. 50 uL of 400 uM AMP (final concentration will be 200 uM) was added using Bio-tek dispenser. Plates were incubated for 100 mins. 20 uL of supernatant was transferred into 384-well NUNC plate pre-filled with 60 ul Quench buffer (80% organic and 20% water+0.1% FA) with internal standard. The plates were spun down at 4500 rpm for 20 mins, then 20 ul of supernatant was transferred to another Nunc plate prefilled with 80 ul of water. The samples were analyzed using Rapid fire.

| IC50 (CD73 [1]) [nM] | EC50 (CD73 [2]) [nM] | SMILES |
| --- | --- | --- |
| 13.1 | > 50 | Cc1nc(-c2c[nH]c(=O)[nH]c2=O)cc(N2C[C@H](OC(=O)NC(C)C)C(F)(F)C2)n1 [Example 29, (S)-4,4-difluoro-1-(2-methyl-2′,4′-dioxo-1′,2′,3′,4′-tetrahydro-[4,5′-bipyrimidin]-6-yl)pyrrolidin-3-yl isopropylcarbamate] |
| 13 | 34.8 | Cc1nc(-c2c[nH]c(=O)[nH]c2=O)cc(N2C[C@H](OC(=O)NC3(C(F)(F)F)CC3)C(F)(F)C2)n1 [Example 30, (S)-4,4-difluoro-1-(2-methyl-2′,4′-dioxo-1′,2′,3′,4′-tetrahydro-[4,5′-bipyrimidin]-6-yl)pyrrolidin-3-yl (1-(trifluoromethyl)cyclopropyl)carbamate] |
